The text below walks through data of article PMC11284788, “NN1213 – A Potent, Long-Acting, and Selective Analog of Human Amylin” (Journal of Medicinal Chemistry, 2024).

Series [1] concerns the target T1, hAMY3R (Homo sapiens, UniProt O60896+P30988).
T1 sequence (P30988 25-474): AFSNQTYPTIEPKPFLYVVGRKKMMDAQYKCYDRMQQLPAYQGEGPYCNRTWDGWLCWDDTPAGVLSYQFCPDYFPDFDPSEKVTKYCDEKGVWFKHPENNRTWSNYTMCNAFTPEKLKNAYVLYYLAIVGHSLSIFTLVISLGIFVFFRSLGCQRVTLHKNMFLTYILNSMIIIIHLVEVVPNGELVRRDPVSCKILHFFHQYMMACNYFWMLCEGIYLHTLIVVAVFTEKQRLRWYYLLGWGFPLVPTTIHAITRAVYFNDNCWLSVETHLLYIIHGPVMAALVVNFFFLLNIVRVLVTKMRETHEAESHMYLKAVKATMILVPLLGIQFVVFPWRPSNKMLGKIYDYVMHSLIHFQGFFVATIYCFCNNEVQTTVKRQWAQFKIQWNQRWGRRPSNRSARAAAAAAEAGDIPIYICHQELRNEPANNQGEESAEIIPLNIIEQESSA
T1 sequence (O60896 24-148 partner): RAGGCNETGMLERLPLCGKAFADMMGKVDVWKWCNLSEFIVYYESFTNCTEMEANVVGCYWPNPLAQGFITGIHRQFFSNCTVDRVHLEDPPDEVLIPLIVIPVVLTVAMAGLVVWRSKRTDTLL
Put plainly: Species-specific cAMP assay, hAMY3R. The following applies: ratio of cAMP EC50 values, human receptors.

The target of the next series is T2, rAMY1R (Rattus norvegicus, UniProt P32214+Q9JJ74).
T2 sequence (P32214 25-516): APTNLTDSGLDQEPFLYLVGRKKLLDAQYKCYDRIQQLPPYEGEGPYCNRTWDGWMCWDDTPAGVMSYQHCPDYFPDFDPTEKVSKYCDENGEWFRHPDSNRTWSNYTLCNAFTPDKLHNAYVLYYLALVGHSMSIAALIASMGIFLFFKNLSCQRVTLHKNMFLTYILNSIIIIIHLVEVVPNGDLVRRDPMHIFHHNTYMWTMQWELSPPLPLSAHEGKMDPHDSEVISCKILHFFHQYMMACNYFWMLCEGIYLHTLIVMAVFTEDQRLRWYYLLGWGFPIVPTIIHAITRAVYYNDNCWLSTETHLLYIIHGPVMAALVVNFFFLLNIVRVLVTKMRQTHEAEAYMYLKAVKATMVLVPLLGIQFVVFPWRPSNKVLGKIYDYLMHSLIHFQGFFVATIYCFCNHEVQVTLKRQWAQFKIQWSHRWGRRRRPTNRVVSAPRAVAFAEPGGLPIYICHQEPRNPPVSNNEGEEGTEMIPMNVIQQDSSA
T2 sequence (Q9JJ74 27-148 partner): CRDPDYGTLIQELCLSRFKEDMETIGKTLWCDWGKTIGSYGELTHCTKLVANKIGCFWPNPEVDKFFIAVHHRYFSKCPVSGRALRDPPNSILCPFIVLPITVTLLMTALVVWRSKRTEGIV
Put plainly: Whole-cell competition binding, rAMY1R. More on the design: expressed in transfected cells; host or cells: BHK tk-ts 13 cells, transient, FuGENE 6. The conditions noted are these: IC50 for the CTR divided by that of the AMYR, rat receptors.

Another series deals with cAMY1R. The series is described as follows: Whole-cell competition binding, cAMY1R. The conditions noted are these: IC50 for the CTR divided by that of the AMYR, canine receptors.
The test system of the next series is cAMY3R. Put plainly: Whole-cell competition binding, cAMY3R. The following applies: IC50 for the CTR divided by that of the AMYR, canine receptors.
The nature of the next series: in vivo. The following applies: male, Sprague-Dawley, rat, iv.
Another series concerns the target T3, rAMY3R (Rattus norvegicus, UniProt P32214+Q9JJ73).
T3 sequence (P32214 25-479 isoform P32214-2 limits assumed): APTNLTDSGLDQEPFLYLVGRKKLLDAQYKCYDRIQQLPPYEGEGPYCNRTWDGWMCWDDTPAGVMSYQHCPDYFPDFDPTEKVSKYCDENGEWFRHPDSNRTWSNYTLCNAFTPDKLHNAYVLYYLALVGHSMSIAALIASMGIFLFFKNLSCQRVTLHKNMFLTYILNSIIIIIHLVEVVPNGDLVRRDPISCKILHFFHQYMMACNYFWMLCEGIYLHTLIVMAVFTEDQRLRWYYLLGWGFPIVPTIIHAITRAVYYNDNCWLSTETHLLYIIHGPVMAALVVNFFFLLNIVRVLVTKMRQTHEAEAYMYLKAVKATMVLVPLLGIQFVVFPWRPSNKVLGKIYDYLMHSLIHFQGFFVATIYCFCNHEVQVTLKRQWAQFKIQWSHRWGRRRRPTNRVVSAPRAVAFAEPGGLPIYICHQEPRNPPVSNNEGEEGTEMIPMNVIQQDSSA
T3 sequence (Q9JJ73 23-147 partner): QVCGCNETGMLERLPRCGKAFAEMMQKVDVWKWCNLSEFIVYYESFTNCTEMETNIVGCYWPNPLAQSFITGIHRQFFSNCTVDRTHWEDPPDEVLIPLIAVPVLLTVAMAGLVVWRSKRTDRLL
The series is described as follows: Species-specific cAMP assay, rAMY3R. The following applies: ratio of cAMP EC50 values, rat receptors. A general note: Cyclic AMP is a second messenger, typically raised through Gs and lowered through Gi signalling.

The conditions of series [2]: in vivo, iv.
Procedure: (§1) Blood samples were collected at fixed time points postdose to determine full PK profiles. Plasma samples were analyzed by ELISA. Plasma concentration–time profiles were analyzed by noncompartmental analysis.
Rabbits: Female rabbits (New Zealand white, Charles River; 21–23 weeks; 2.5–3.5 kg) were group-
housed (10 per cage) in normal day–night rhythm from arrival and had free access to food and water.
The rabbits were treated against coccidiosis during their 5-week acclimation period upon arrival. Iv
dosing was performed as a bolus injection into an ear vein with a dosing volume of 0.1 mL/kg. The
dosing solution was at room temperature before injection. Venous blood sampling was performed
directly through puncture of an ear vein using a needle. A full plasma concentration–time profile was
obtained from each animal.
Blood (300 µL) was collected directly into test
tubes containing EDTA buffer (Microvette CB 300 K2E). Samples were kept on wet ice until
centrifugation (10 min, 4 °C, 3000 rpm). Plasma (100 µL) was transferred immediately to Micronic
tubes and kept at –20 °C until analysis.
Plasma analysis: Plasma samples were analyzed by a commercially available kit (Millipore, Human
Amylin ELISA, cat. #EZHA-52-K). […]
was applied and the plate was read on a fluorescent reader with an excitation/emission wavelength of
samples. The lower limit of quantification (LLOQ) was 100–500 pM.
Series [3] has as its target T1, hAMY3R. The series is described as follows: Whole-cell competition binding, hAMY3R. Further details: expressed in transfected cells; host or cells: BHK tk-ts 13, transient co-transfection; whole cells for the species-specific assays. The following applies: IC50 for the CTR divided by that of the AMYR, human receptors.

Structures are written as SMILES.

Procedure for in vivo: as §1
Pharmacokinetic Evaluation. Rats: Male Sprague-Dawley rats (Taconic, Europe; body weight
approximately 400 g) were group-housed under controlled temperature conditions (20 °C ± 2 °C).
Blood was collected from the sublingual vein and rats were acclimated to handling on three separate
occasions prior to blood collection.
the tail vein of five rats. Sc injections were performed in the neck of another group of five rats. The
dosing volume was 2 mL/kg.
collected into test tubes containing EDTA for stabilization and kept on ice until centrifugation. Each
blood sample was 100 µL. Plasma was separated from whole blood by centrifugation and was stored at
–20 °C or lower until analysis.

As a reminder, the half-life is the time needed for the level to fall by half in the phase considered. Read a high half-life as slow loss. In the case of `CC[C@H](C)[C@H](NC(=O)[C@H](C)NC(=O)CNC(=O)[C@H](Cc1ccccc1)NC(=O)[C@H](CC(N)=O)NC(=O)[C@@H]1CCCN1C(=O)[C@H](CO)NC(=O)[C@H](CO)NC(=O)[C@H](Cc1c[nH]cn1)NC(=O)[C@H](CCCNC(=N)N)NC(=O)[C@H](CC(C)C)NC(=O)[C@H](Cc1ccccc1)NC(=O)[C@H](CC(=O)O)NC(=O)[C@H](C)NC(=O)[C@H](CC(C)C)NC(=O)[C@H](CCCNC(=N)N)NC(=O)[C@H](CCC(N)=O)NC(=O)[C@@H](NC(=O)[C@H](C)NC(=O)[C@@H]1CSSC[C@H](NC(=O)[C@@H](N)CCCCNC(=O)CC[C@H](NC(=O)CC[C@H](NC(=O)CCCCCCCCCCCCCCCCCCC(=O)O)C(=O)O)C(=O)O)C(=O)N[C@@H](CC(N)=O)C(=O)N[C@@H]([C@@H](C)O)C(=O)N[C@@H](C)C(=O)N[C@@H]([C@@H](C)O)C(=O)N1)[C@@H](C)O)C(=O)N1CCC[C@H]1C(=O)N[C@@H](CO)C(=O)N[C@@H](CO)C(=O)N[C@H](C(=O)N[C@@H](CC(N)=O)C(=O)N[C@H](C(=O)NCC(=O)N[C@@H](CO)C(=O)N[C@@H](CCCNC(=N)N)C(=O)N[C@H](C(=O)N[C@@H](Cc1ccc(O)cc1)C(N)=O)[C@@H](C)O)C(C)C)[C@@H](C)O` [NN1213], the “Ratio CTR/AMY3R (human, functional)” value at hAMY3R [1] is reported as 51. The “Ratio CTR/AMY1R (rat, binding)” value on rAMY1R came out at 190. Besides, the “Ratio CTR/AMY1R (canine, binding)” value in the series on cAMY1R is listed as 73. In the series on cAMY3R, the “Ratio CTR/AMY3R (canine, binding)” value is 40. Besides, in “in vivo”, the half-life was 24 h. Besides, at rAMY3R, the “Ratio CTR/AMY3R (rat, functional)” value worked out at 144. For the same molecule, the “terminal plasma half-life (T1/2), rabbit” value in series [2] is given as “approximately 50 h”. On hAMY3R [3], the “Ratio CTR/AMY3R (human, binding)” value is given as 67.
